# Results: PMC6409085, “Three odorant-binding proteins are involved in the behavioral response of Sogatella furcifera to rice plant volatiles” (PeerJ, 2019)
# pIC50: −log10 of the molar value. Several values for one entry are separate records, joined by “and”; a condition that tells them apart may be missing. Equal entries are not always repeated.
# What was measured:
# [1] = test system: S. furcifera adults; experiment: Y-tube olfactometer behavioral trials; type: in vivo, Sogatella furcifera; conditions: odorant 50 µL/L vs hexane
# Outline: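 Single S. furcifera adults (2 days post-emergence, starved 0.5 h) chose between odorant (100 µL of 50 µL/L on filter paper) and hexane control in a glass Y-tube, charcoal-filtered humidified air 300 mL/min per arm, 25 ± 1 °C, 50% RH. Choice scored if insect passed half an arm and stayed >1 min within 10 min; 45 insects per compound, chi-squared test.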
# [2] = molecular target: SfurOBP1 (Sogatella furcifera, UniProt V5T8N5); experiment: biochemical; type: binding; conditions: for Fluorescence competitive binding assay, fluorescence intensity: OBP1, three replicate columns
# Outline: (§1)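 In 50 mM Tris-HCl pH 7.4, odorants displace 1-NPN (2.0 µM) from 2.0 µM protein. Emission at 390–490 nm under 337 nm excitation is measured 2 min after competitor addition, in triplicate. Ki is obtained from IC50 and the 1-NPN dissociation constant.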
# [3] = molecular target: SfurOBP11 (Sogatella furcifera, UniProt V5T6E3); experiment: biochemical; type: binding
# Outline: as §1
# [4] = molecular target: SfurOBP2 (Sogatella furcifera, UniProt V5T759); experiment: biochemical; type: binding
# Outline: as §1
# [5] = molecular target: SfurOBP3 (Sogatella furcifera, UniProt V5T818); experiment: biochemical; type: binding; conditions: for Fluorescence competitive binding assay, fluorescence intensity: OBP3, three replicate columns
# Outline: as §1
# Sequence of SfurOBP1 (V5T8N5 entry or part of it): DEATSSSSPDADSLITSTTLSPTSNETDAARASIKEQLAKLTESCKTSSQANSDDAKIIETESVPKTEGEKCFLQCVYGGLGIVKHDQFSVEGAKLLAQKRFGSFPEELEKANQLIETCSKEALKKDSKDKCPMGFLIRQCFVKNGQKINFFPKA
# Sequence of SfurOBP2 (V5T759 entry or part of it): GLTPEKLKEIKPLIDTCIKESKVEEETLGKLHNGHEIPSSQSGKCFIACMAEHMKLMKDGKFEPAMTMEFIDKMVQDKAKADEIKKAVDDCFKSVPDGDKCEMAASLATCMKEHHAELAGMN
# Sequence of SfurOBP3 (V5T818 entry or part of it): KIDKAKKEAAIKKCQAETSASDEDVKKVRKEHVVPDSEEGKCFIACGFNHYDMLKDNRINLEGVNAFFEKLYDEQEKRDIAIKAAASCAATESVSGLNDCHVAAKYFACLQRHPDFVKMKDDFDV
# Sequence of SfurOBP11 (V5T6E3 entry or part of it): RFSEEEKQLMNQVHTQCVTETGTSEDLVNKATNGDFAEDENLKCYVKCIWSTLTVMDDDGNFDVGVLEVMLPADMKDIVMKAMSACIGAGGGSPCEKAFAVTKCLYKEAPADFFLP
compound,measurement,setting,value
CCCCCCCC=O [octanal],behavioral response of S. furcifera (in words),[1],significantly repelled
same,number of insects choosing hexane arm,[1]; adults,15
same,number of insects choosing volatilies arm,[1]; adults,8
same,number of insects failed (no choice),[1]; adults,17
same,"Fluorescence competitive binding assay, fluorescence intensity",[2]; ligand concentration 2 (μM),7113 and 7279 and 7196
same,"Fluorescence competitive binding assay, fluorescence intensity",[2]; ligand concentration 4 (μM),8035 and 6567 and 6323
same,"Fluorescence competitive binding assay, fluorescence intensity",[2]; ligand concentration 6 (μM),7198 and 8786 and 7995
same,"Fluorescence competitive binding assay, fluorescence intensity",[2]; ligand concentration 8 (μM),8545 and 7731 and 8071
same,"Fluorescence competitive binding assay, fluorescence intensity",[2]; ligand concentration 10 (μM),6799 and 7181 and 8487
same,"Fluorescence competitive binding assay, fluorescence intensity",[2]; ligand concentration 12 (μM),7177 and 8788 and 7408
same,"Fluorescence competitive binding assay, fluorescence intensity",[2]; ligand concentration 14 (μM),8520 and 7543 and 7998
same,"Fluorescence competitive binding assay, fluorescence intensity",[2]; ligand concentration 16 (μM),7196 and 9418 and 8283
same,"Fluorescence competitive binding assay, fluorescence intensity",[2]; ligand concentration 18 (μM),10247 and 9192 and 8904
same,"Fluorescence competitive binding assay, fluorescence intensity",[2]; ligand concentration 20 (μM),10042 and 9521 and 8702
same,pIC50,"[2]; SfurOBP1, protein and 1-NPN both 2.0 µM, competitor 2-20 µM, read-out: IC50",< 4.70
same,pIC50,"[3]; SfurOBP11, protein and 1-NPN both 2.0 µM, competitor 2-20 µM, read-out: IC50",< 4.70
same,"Fluorescence intensity, fluorescence competitive binding assay, OBP11","[3]; ligand concentration 2, replicate 1",24279
same,"Fluorescence intensity, fluorescence competitive binding assay, OBP11","[3]; ligand concentration 2, replicate 2",24939
same,"Fluorescence intensity, fluorescence competitive binding assay, OBP11","[3]; ligand concentration 2, replicate 3",29122
same,"Fluorescence intensity, fluorescence competitive binding assay, OBP11","[3]; ligand concentration 4, replicate 1",25640
same,"Fluorescence intensity, fluorescence competitive binding assay, OBP11","[3]; ligand concentration 4, replicate 2",28958
same,"Fluorescence intensity, fluorescence competitive binding assay, OBP11","[3]; ligand concentration 4, replicate 3",26788
same,"Fluorescence intensity, fluorescence competitive binding assay, OBP11","[3]; ligand concentration 6, replicate 1",25301
same,"Fluorescence intensity, fluorescence competitive binding assay, OBP11","[3]; ligand concentration 6, replicate 2",29174
same,"Fluorescence intensity, fluorescence competitive binding assay, OBP11","[3]; ligand concentration 6, replicate 3",26969
same,"Fluorescence intensity, fluorescence competitive binding assay, OBP11","[3]; ligand concentration 8, replicate 1",29061
same,"Fluorescence intensity, fluorescence competitive binding assay, OBP11","[3]; ligand concentration 8, replicate 2",28222
same,"Fluorescence intensity, fluorescence competitive binding assay, OBP11","[3]; ligand concentration 8, replicate 3",29900
same,"Fluorescence intensity, fluorescence competitive binding assay, OBP11","[3]; ligand concentration 10, replicate 1",27603
same,"Fluorescence intensity, fluorescence competitive binding assay, OBP11","[3]; ligand concentration 10, replicate 2",27689
same,"Fluorescence intensity, fluorescence competitive binding assay, OBP11","[3]; ligand concentration 10, replicate 3",19569
same,"Fluorescence intensity, fluorescence competitive binding assay, OBP11","[3]; ligand concentration 12, replicate 1",25318
same,"Fluorescence intensity, fluorescence competitive binding assay, OBP11","[3]; ligand concentration 12, replicate 2",27390
same,"Fluorescence intensity, fluorescence competitive binding assay, OBP11","[3]; ligand concentration 12, replicate 3",28182
same,"Fluorescence intensity, fluorescence competitive binding assay, OBP11","[3]; ligand concentration 14, replicate 1",26354
same,"Fluorescence intensity, fluorescence competitive binding assay, OBP11","[3]; ligand concentration 14, replicate 2",26978
same,"Fluorescence intensity, fluorescence competitive binding assay, OBP11","[3]; ligand concentration 14, replicate 3",26309
same,"Fluorescence intensity, fluorescence competitive binding assay, OBP11","[3]; ligand concentration 16, replicate 1",23481
same,"Fluorescence intensity, fluorescence competitive binding assay, OBP11","[3]; ligand concentration 16, replicate 2",24311
same,"Fluorescence intensity, fluorescence competitive binding assay, OBP11","[3]; ligand concentration 16, replicate 3",22273
same,"Fluorescence intensity, fluorescence competitive binding assay, OBP11","[3]; ligand concentration 18, replicate 1",28836
same,"Fluorescence intensity, fluorescence competitive binding assay, OBP11","[3]; ligand concentration 18, replicate 2",32227
same,"Fluorescence intensity, fluorescence competitive binding assay, OBP11","[3]; ligand concentration 18, replicate 3",28560
same,"Fluorescence intensity, fluorescence competitive binding assay, OBP11","[3]; ligand concentration 20, replicate 1",27143
same,"Fluorescence intensity, fluorescence competitive binding assay, OBP11","[3]; ligand concentration 20, replicate 2",27661
same,"Fluorescence intensity, fluorescence competitive binding assay, OBP11","[3]; ligand concentration 20, replicate 3",26182
same,pIC50,"[4]; SfurOBP2, protein and 1-NPN both 2.0 µM, competitor 2-20 µM, read-out: IC50",< 4.70
same,"Fluorescence competitive binding assay, OBP2 (raw fluorescence reading)","[4]; ligand concentration 2 (unit not given), replicate column 1 of 3",19179
same,"Fluorescence competitive binding assay, OBP2 (raw fluorescence reading)","[4]; ligand concentration 2 (unit not given), replicate column 2 of 3",16653
same,"Fluorescence competitive binding assay, OBP2 (raw fluorescence reading)","[4]; ligand concentration 2 (unit not given), replicate column 3 of 3",19027
same,"Fluorescence competitive binding assay, OBP2 (raw fluorescence reading)","[4]; ligand concentration 4 (unit not given), replicate column 1 of 3",18170
same,"Fluorescence competitive binding assay, OBP2 (raw fluorescence reading)","[4]; ligand concentration 4 (unit not given), replicate column 2 of 3",19771
same,"Fluorescence competitive binding assay, OBP2 (raw fluorescence reading)","[4]; ligand concentration 4 (unit not given), replicate column 3 of 3",20766
same,"Fluorescence competitive binding assay, OBP2 (raw fluorescence reading)","[4]; ligand concentration 6 (unit not given), replicate column 1 of 3",19862
same,"Fluorescence competitive binding assay, OBP2 (raw fluorescence reading)","[4]; ligand concentration 6 (unit not given), replicate column 2 of 3",19512
same,"Fluorescence competitive binding assay, OBP2 (raw fluorescence reading)","[4]; ligand concentration 6 (unit not given), replicate column 3 of 3",20651
same,"Fluorescence competitive binding assay, OBP2 (raw fluorescence reading)","[4]; ligand concentration 8 (unit not given), replicate column 1 of 3",15792
same,"Fluorescence competitive binding assay, OBP2 (raw fluorescence reading)","[4]; ligand concentration 8 (unit not given), replicate column 2 of 3",18755
same,"Fluorescence competitive binding assay, OBP2 (raw fluorescence reading)","[4]; ligand concentration 8 (unit not given), replicate column 3 of 3",20463
same,"Fluorescence competitive binding assay, OBP2 (raw fluorescence reading)","[4]; ligand concentration 10 (unit not given), replicate column 1 of 3",17421
same,"Fluorescence competitive binding assay, OBP2 (raw fluorescence reading)","[4]; ligand concentration 10 (unit not given), replicate column 2 of 3",18400
same,"Fluorescence competitive binding assay, OBP2 (raw fluorescence reading)","[4]; ligand concentration 10 (unit not given), replicate column 3 of 3",18628
same,"Fluorescence competitive binding assay, OBP2 (raw fluorescence reading)","[4]; ligand concentration 12 (unit not given), replicate column 1 of 3",16986
same,"Fluorescence competitive binding assay, OBP2 (raw fluorescence reading)","[4]; ligand concentration 12 (unit not given), replicate column 2 of 3",26722
same,"Fluorescence competitive binding assay, OBP2 (raw fluorescence reading)","[4]; ligand concentration 12 (unit not given), replicate column 3 of 3",18513
same,"Fluorescence competitive binding assay, OBP2 (raw fluorescence reading)","[4]; ligand concentration 14 (unit not given), replicate column 1 of 3",17500
same,"Fluorescence competitive binding assay, OBP2 (raw fluorescence reading)","[4]; ligand concentration 14 (unit not given), replicate column 2 of 3",18527
same,"Fluorescence competitive binding assay, OBP2 (raw fluorescence reading)","[4]; ligand concentration 14 (unit not given), replicate column 3 of 3",15051
same,"Fluorescence competitive binding assay, OBP2 (raw fluorescence reading)","[4]; ligand concentration 16 (unit not given), replicate column 1 of 3",15983
same,"Fluorescence competitive binding assay, OBP2 (raw fluorescence reading)","[4]; ligand concentration 16 (unit not given), replicate column 2 of 3",17600
same,"Fluorescence competitive binding assay, OBP2 (raw fluorescence reading)","[4]; ligand concentration 16 (unit not given), replicate column 3 of 3",16529
same,"Fluorescence competitive binding assay, OBP2 (raw fluorescence reading)","[4]; ligand concentration 18 (unit not given), replicate column 1 of 3",18709
same,"Fluorescence competitive binding assay, OBP2 (raw fluorescence reading)","[4]; ligand concentration 18 (unit not given), replicate column 2 of 3",20674
same,"Fluorescence competitive binding assay, OBP2 (raw fluorescence reading)","[4]; ligand concentration 18 (unit not given), replicate column 3 of 3",18464
same,"Fluorescence competitive binding assay, OBP2 (raw fluorescence reading)","[4]; ligand concentration 20 (unit not given), replicate column 1 of 3",19401
same,"Fluorescence competitive binding assay, OBP2 (raw fluorescence reading)","[4]; ligand concentration 20 (unit not given), replicate column 2 of 3",17294
same,"Fluorescence competitive binding assay, OBP2 (raw fluorescence reading)","[4]; ligand concentration 20 (unit not given), replicate column 3 of 3",16214
same,"Fluorescence competitive binding assay, fluorescence intensity",[5]; ligand concentration 2,68575 and 67242 and 67984
same,"Fluorescence competitive binding assay, fluorescence intensity",[5]; ligand concentration 4,64299 and 63882 and 65677
same,"Fluorescence competitive binding assay, fluorescence intensity",[5]; ligand concentration 6,63214 and 64264 and 71883
same,"Fluorescence competitive binding assay, fluorescence intensity",[5]; ligand concentration 8,56987 and 54777 and 62435
same,"Fluorescence competitive binding assay, fluorescence intensity",[5]; ligand concentration 10,56513 and 56201 and 65155
same,"Fluorescence competitive binding assay, fluorescence intensity",[5]; ligand concentration 12,55112 and 58995 and 53063
same,"Fluorescence competitive binding assay, fluorescence intensity",[5]; ligand concentration 14,51702 and 52973 and 56636
same,"Fluorescence competitive binding assay, fluorescence intensity",[5]; ligand concentration 16,47206 and 51931 and 50397
same,"Fluorescence competitive binding assay, fluorescence intensity",[5]; ligand concentration 18,54350 and 59148 and 62323
same,"Fluorescence competitive binding assay, fluorescence intensity",[5]; ligand concentration 20,48786 and 51913 and 45060
same,pIC50,"[5]; SfurOBP3, protein and 1-NPN both 2.0 µM, competitor 2-20 µM, read-out: IC50",< 4.70
